Measurements reported in patent US20210386761A1, “COMPOSITION FOR PREVENTING OR TREATING INFLAMMATORY BOWEL DISEASE, CONTAINING, AS ACTIVE INGREDIENT, TAURODEOXYCHOLIC ACID OR PHARMACEUTICALLY ACCEPTABLE SALT THEREOF” (SHAPERON INC., priority 2019, published 2021).

What was measured:
[1] = test system: inflammatory bowel disease-induced mouse model (DSS); test: Clinical symptom analysis (body weight, DAI, survival) in 2% DSS inflammatory bowel disease-induced mouse model; type: in vivo
Procedure: An inflammatory bowel disease-induced mouse model using dextran sodium sulfate (DSS) was prepared by the following method.
Specifically, male C57BL/6 mice (7 to 12 weeks old, body weight of 18 to 30 g) were adapted for one week and used in the experiment. Animal rearing was carried out under the conditions of a temperature of 25° C. and a day and night cycle (12 hours night/12 hours daytime), and feed and drinking water were freely fed. All the animals were managed according to the guidelines for use of experimental animals of Seoul National University IACUC (IACUC: SNU-151223-4-1). On the day of administration of DSS (MP Biomedicals, Santa Ana, Calif., USA) (Day 0), mice were weighed and marked on the tail.
Next, male C57BL/6 mice were fed with a 2% DSS solution together with drinking water from Day 0 of the experiment to induce inflammatory bowel disease. DPBS or 10, 5, 2.5, or 1 mg/kg sodium taurodeoxycholic acid (TDCA) was administered in 0.1 ml by oral gavage one time a day from Day 1 of the experiment. Alternatively, 0.1 ml of 5 mg/kg TDCA was administered one time a day by oral gavage 2 days before DSS administration.
The 2% DSS solution was used after being prepared by dissolving DSS powder in sterilized distilled water and filtering the solution. The TDCA was dissolved in DPBS (Dulbecco's phosphate-buffered saline) and used.
The disease activity indexes (DAI) including body weight, body weight loss, stool consistency, and bloody stool were measured daily. DAI was scored according to the following [Table 1].
(§1) Specifically, female C57BL/6 mice were fed with a 2% DSS solution or DPBS together with drinking water for 10 days from Day 0 of the experiment by the same method as that described in <Example 1>, DPBS or 5 mg/kg TDCA was administered to the mice by oral gavage one time a day for 11 days from Day 1 of the experiment, and the body weight and DAI were measured daily. As a control, mice freely fed with drinking water were used.
as §1, with “or 10, 5, 2.5, or 1” for “or 5”
as §1, with “solution” for “solution or DPBS”, “7” for “10”, “gavage” for “gavage one time a day for 11 days”, “DSS administration or 2 days before DSS administration,” for “the experiment,”
as §1, with “Specifically, C57BL/6-Gpbar1^tm1(KOMP)Vlcg mice (TGR5 KO, KOMP Repository, The Knockout Mouse Project, University of California, Davis, Calif.) were used as TGR5 knockout (TGR5^−/−) female C57BL/6 mice. The TGR5^−/− female C57BL/6 mice or TGR5 normal (WT)” for “Specifically,”, “1>.” for “1>,”

IL-6 = test: Pro-inflammatory cytokine ELISA of colon tissue, IL-6; type: in vivo, mouse; conditions: for IL-6 in the colon tissue: Day 7
Procedure: In order to evaluate the clinical symptoms-improving efficacy in comparison with those by clinical prescription drugs, inflammatory bowel disease was induced by 7-day or repeated administration of 3% or 2.5% DSS solution, and tofacitinib 10 mg/kg, 5-ASA 100 mg/kg or 200 mg/kg, prednisolone 1 mg/kg, and TDCA 2.5 mg/kg were administered one time a day from the start date of DSS administration. From the start date of DSS administration, TDCA 2.5 mg/kg was administered one time a day (QD), two times a day (BID), and three times a day (TID).
A colon was obtained from a mouse which had been subjected to an experiment by the same method as that described in <Example 2>, the peripheral colon was cut into 2 cm in length and the weight was recorded. Next, the colon was chopped into 1 mm pieces and frozen on ice, treated with 500 μl of cold DPBS containing protease inhibitor (Roche, 11836170001, Basel, Switzerland), and homogenized for 10 to 20 seconds using an electric homogenizer (IKA T10 Basic, Wilmington, SE, USA). The homogenate was centrifuged at 4° C. for 10 minutes at 12,000×g to obtain a supernatant. ELISA analysis was performed using the obtained supernatant, IL-6 DuoSet ELISA kit (R & D systems, USA), IL-1β DuoSet ELISA kit (R & D systems, USA), and TNF-α DuoSet ELISA kit (R & D systems, USA) according to the manufacturer's procedure to confirm the production of pro-inflammatory cytokines.
as §1, with “solution” for “solution or DPBS”, “7” for “10”, “6” for “11”, “used. Next, the mice were sacrificed on Day 7 of the experiment by the same method as that described in <Example 3>, and inflammatory cell and proinflammatory cytokine analysis was performed.” for “used.”
Specifically, female C57BL/6 mice were fed with a 2% DSS solution together with drinking water for 7 days from Day 0 of the experiment by the same method as that described in <Example 1>, DPBS or 5 mg/kg TDCA was administered to the mice by oral gavage from Day 1 of DSS administration or 2 days before DSS administration, and the body weight and DAI were measured daily. As a control, mice freely fed with drinking water were used. Next, the mice were sacrificed on Day 7 of the experiment by the same method as that described in <Example 3>, and the inflammatory cell and proinflammatory cytokine analysis was performed.

C[C@H](CCC(=O)NCCS(=O)(=O)O)[C@H]1CC[C@H]2[C@@H]3CC[C@@H]4C[C@H](O)CC[C@]4(C)[C@H]3C[C@H](O)[C@]12C [TDCA, sodium taurodeoxycholic acid]
initial body weight lost on Day 10 ([1]; 2% DSS 10 days, 5 mg/kg TDCA oral gavage one time a day for 11 days from Day 1, DSS+DPBS group about 15%, FIG. 1A): about 5%
survival rate ([1]; 2% DSS 10 days, 5 mg/kg TDCA oral gavage one time a day, DSS+DPBS group 60%, FIG. 1C): 100%
start of body weight loss later than the DSS+DPBS group ([1]; 2% DSS 10 days, 5 mg/kg TDCA oral gavage one time a day, FIG. 1A): about 2 days
DAI (disease activity index) change ([1]; 2% DSS 10 days, 5 mg/kg TDCA oral gavage one time a day, FIG. 1B): lower than that in the DSS+DPBS group
DAI change ([1]; 2% DSS 10 days, 10, 5, 2.5, or 1 mg/kg TDCA, FIG. 4B): lower than that in the DSS+DPBS group
degree of alleviation of body weight loss ([1]; 2% DSS 10 days, TDCA at 5 and 10 mg/kg, among 10, 5, 2.5, 1 mg/kg, FIG. 4A): superior
DAI change ([1]; 2% DSS 10 days, TDCA at 10, 5, and 2.5 mg/kg, among 10, 5, 2.5, 1 mg/kg, FIG. 4B): DAI was lower
DAI change ([1]; DSS+TDCA group: 5 mg/kg TDCA from Day 1 of DSS administration, 2% DSS 7 days, FIG. 6B): similarly decreased
DAI change ([1]; DSS+preTDCA group: 5 mg/kg TDCA from 2 days before DSS administration, 2% DSS 7 days, FIG. 6B): similarly decreased
initial body weight lost on Day 10 ([1]; TGR5 normal (WT) mice, 2% DSS 10 days, 5 mg/kg TDCA oral gavage one time a day, FIG. 8A): about 5%
DAI change ([1]; TGR5 normal (WT) mice, 2% DSS 10 days, 5 mg/kg TDCA, FIG. 8B): lower than those in the other groups
survival rate ([1]; TGR5 normal (WT) mice, 2% DSS 10 days, 5 mg/kg TDCA, FIG. 8C): 100%
IL-6 in the colon tissue (IL-6; 2% DSS 7 days, 5 mg/kg TDCA oral gavage, FIG. 3B): decreased
concentration of IL-6 in the colon tissue, compared with clinical prescription drugs (IL-6; 3% DSS 7 days, TDCA 2.5 mg/kg vs tofacitinib 10 mg/kg and 5-ASA 100 mg/kg): equivalent to those by tofacitinib 10 mg/kg and 5-ASA 100 mg/kg
IL-6 in the colon tissue (IL-6; DSS+TDCA group: 5 mg/kg TDCA from Day 1 of DSS, FIG. 7B): decreased
IL-6 in the colon tissue (IL-6; DSS+preTDCA group: 5 mg/kg TDCA from 2 days before DSS, FIG. 7B): decreased
